Test results as given in US20230074252A1, “DOSAGES AND METHODS FOR TREATING PULMONARY ARTERIAL HYPERTENSION WITH RODATRISTAT” (Altavant Sciences GmbH, priority 2020, published 2023).

Legend:
Assay in all cases: Transporter inhibition, transporter-expressing in vitro system
Type in all cases: in vitro ADME
OCT2 = target: T1, OCT2 (Homo sapiens, UniProt O15244); conditions: for IC50: concentrations of up to 20 μM; for Potential for interaction? (transporter inhibitor), OCT2: predicted @ 600 mg BID
T1 sequence (O15244 1-555): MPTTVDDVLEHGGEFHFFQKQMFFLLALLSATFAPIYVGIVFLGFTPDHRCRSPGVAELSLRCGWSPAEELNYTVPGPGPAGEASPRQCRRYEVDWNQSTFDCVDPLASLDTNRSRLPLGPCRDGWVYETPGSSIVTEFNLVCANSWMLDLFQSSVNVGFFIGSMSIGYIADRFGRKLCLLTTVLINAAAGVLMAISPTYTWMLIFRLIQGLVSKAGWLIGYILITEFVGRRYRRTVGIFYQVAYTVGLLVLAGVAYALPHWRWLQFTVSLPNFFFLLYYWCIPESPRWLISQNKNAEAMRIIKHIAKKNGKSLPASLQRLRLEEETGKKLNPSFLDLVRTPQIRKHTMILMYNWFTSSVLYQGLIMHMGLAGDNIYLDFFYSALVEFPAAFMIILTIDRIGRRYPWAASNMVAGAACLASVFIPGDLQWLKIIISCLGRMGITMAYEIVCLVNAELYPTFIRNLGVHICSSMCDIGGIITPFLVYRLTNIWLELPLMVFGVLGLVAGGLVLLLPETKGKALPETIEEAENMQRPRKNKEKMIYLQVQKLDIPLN
Description: (§1) The competitive inhibition of specific transporters was investigated for RVT-1201 and KAR5417 in transporter-expressing in vitro systems (XT158039). Inhibition of P-gp was evaluated using a Caco-2 cell line with digoxin as probe substrate. Inhibition of OATP1B1 and OATP1B3 was evaluated using a HEK293 cell line expressing these transporters with estradiol-17β-glucuronide as probe substrate. In addition, inhibition of other transporters was also investigated (BCRP, OAT1, OAT3, OCT2, MATE1, MATE2-K). The IC50 estimates for P-gp (RVT-1201) and OATP1B1/3 (RVT-1201 and KAR5417) supported further evaluation of inhibition DDI potential using the PBPK model. For each IC50 estimate, substrate concentration and Km were used to estimate RVT-1201 and KAR5417 Ki with Equation 1 (Cheng and Prusoff, 1973).

MATE2-K = MATE2-K (Homo sapiens, UniProt Q86VL8); conditions: for Potential for interaction? (transporter inhibitor), MATE2-K: predicted @ 600 mg BID
Chain of MATE2-K (Q86VL8 1-566 isoform Q86VL8-3): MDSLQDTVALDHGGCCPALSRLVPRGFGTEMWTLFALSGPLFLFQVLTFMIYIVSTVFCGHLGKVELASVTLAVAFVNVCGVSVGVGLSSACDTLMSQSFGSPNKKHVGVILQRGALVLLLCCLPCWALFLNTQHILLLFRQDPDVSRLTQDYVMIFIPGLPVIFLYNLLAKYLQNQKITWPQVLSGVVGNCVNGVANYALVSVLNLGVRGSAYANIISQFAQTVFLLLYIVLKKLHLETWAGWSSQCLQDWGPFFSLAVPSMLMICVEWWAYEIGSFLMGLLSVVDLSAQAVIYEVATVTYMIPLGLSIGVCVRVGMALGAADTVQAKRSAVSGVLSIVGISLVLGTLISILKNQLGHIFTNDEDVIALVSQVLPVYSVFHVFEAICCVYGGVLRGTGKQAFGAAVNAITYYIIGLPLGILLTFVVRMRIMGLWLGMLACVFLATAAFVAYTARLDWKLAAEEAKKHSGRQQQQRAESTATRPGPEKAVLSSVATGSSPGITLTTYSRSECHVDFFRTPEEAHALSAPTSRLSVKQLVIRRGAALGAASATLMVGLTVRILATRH
Description: as §1

MATE1 = target: T2, MATE1 (Homo sapiens, UniProt Q96FL8); conditions: for Potential for interaction? (transporter inhibitor), MATE1: predicted @ 600 mg BID
T2 sequence (Q96FL8 1-570): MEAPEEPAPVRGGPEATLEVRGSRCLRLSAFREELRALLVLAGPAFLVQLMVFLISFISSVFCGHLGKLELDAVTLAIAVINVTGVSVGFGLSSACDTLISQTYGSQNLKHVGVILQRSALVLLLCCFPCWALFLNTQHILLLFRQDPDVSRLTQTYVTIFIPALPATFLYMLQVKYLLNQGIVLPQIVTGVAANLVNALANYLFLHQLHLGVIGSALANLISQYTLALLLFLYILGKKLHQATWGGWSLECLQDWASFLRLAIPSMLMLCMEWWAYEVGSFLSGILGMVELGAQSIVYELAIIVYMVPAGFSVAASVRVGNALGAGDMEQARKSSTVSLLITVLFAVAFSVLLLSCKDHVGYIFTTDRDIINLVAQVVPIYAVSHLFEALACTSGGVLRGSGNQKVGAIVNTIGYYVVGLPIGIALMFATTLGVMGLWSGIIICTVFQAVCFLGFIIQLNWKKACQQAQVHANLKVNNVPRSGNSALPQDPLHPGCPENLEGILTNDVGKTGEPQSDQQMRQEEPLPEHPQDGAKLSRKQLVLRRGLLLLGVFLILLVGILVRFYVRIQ
Description: as §1

OAT1 = target: T3, OAT1 (Homo sapiens, UniProt Q4U2R8); conditions: for Potential for interaction? (transporter inhibitor), OAT1: predicted @ 600 mg BID
T3 sequence (Q4U2R8 1-563): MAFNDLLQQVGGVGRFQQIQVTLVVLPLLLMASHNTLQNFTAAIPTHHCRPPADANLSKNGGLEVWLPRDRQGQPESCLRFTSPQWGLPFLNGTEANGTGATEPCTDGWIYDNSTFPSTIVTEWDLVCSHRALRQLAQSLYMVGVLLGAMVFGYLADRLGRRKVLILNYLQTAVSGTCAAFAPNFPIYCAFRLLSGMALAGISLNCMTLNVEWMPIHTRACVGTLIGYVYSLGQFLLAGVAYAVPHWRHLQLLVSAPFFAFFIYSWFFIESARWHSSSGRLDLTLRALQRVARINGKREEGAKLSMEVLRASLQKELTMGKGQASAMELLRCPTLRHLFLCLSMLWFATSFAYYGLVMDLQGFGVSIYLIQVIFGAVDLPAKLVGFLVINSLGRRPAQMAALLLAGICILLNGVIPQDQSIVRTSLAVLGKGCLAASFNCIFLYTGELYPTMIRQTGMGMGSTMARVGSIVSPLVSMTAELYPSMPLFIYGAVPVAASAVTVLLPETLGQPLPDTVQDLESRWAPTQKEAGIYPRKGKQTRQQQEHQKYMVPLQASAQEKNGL
Description: as §1

OAT3 = target: T4, OAT3 (Homo sapiens, UniProt Q8TCC7); conditions: for Potential for interaction? (transporter inhibitor), OAT3: predicted @ 600 mg BID
T4 sequence (Q8TCC7 1-542): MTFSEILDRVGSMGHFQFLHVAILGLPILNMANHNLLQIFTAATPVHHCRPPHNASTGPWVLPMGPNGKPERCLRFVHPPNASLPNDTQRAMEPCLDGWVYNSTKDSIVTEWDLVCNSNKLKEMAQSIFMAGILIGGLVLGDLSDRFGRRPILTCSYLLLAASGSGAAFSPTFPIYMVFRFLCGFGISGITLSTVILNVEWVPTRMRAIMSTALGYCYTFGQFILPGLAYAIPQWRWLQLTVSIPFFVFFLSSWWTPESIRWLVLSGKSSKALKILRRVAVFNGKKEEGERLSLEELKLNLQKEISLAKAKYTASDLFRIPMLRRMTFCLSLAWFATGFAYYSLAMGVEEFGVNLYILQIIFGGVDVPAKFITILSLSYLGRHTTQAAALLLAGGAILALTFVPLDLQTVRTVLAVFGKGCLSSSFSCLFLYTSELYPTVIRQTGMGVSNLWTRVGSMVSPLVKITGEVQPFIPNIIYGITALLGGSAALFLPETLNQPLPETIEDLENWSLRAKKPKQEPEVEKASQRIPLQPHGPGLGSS
Description: as §1

| SMILES | IC50 (OCT2) [µM] | Potential for interaction? (transporter inhibitor), OCT2 (OCT2) | Potential for interaction? (transporter inhibitor), MATE2-K (MATE2-K) | Potential for interaction? (transporter inhibitor), MATE1 (MATE1) | Inhibition of OAT1 (in words) (OAT1) | Potential for interaction? (transporter inhibitor), OAT1 (OAT1) | Inhibition of OAT3 (in words) (OAT3) | Potential for interaction? (transporter inhibitor), OAT3 (OAT3) | Inhibition of MATE2-K (in words) (MATE2-K; up to 30 μM nominal concentration) | inhibition at 30 µM (MATE1; transporter-expressing in vitro system (MATE1), nominal 30 μM) [%] |
| --- | --- | --- | --- | --- | --- | --- | --- | --- | --- | --- |
| CCOC(=O)[C@@H]1CC2(CCN(c3cc(O[C@H](c4ccc(Cl)cc4-c4ccccc4)C(F)(F)F)nc(N)n3)CC2)CN1 [Rodatristat ethyl, (S)-ethyl 8-(2-amino-6-((R)-1-(5-chloro-[1,1′-biphenyl]-2-yl)-2,2,2-trifluoroethoxy)pyrimidin-4-yl)-2,8-diazaspiro[4.5]decane-3-carboxylate] | > 20 | No | No | No | Neither rodatristat ethyl nor rodatristat inhibited | No | Neither rodatristat ethyl nor rodatristat inhibited | No |  |  |
| Nc1nc(O[C@H](c2ccc(Cl)cc2-c2ccccc2)C(F)(F)F)cc(N2CCC3(CC2)CN[C@H](C(=O)O)C3)n1 [Rodatristat, (S)-8-(2-amino-6-((R)-1-(5-chloro-[1,1′-biphenyl]-2-yl)-2,2,2-trifluoroeth-oxy)pyrimidin-4-yl)-2,8-diazaspiro[4.5]decane-3-carboxylic acid] | > 20 | No | No | No^a | Neither rodatristat ethyl nor rodatristat inhibited | No | Neither rodatristat ethyl nor rodatristat inhibited | No | did not inhibit | 30 |
